Like-named read-outs stand apart in the source and are kept apart here.
Columns and labels:
OX1 [1] = biological target: T1, OX1 (Homo sapiens, UniProt O43613); test: Antagonism PLAP reporter assay, HEK-293 cells expressing human OX1; assay type: cell-based; set-up: expressed in transfected cells; host or cells: HEK-293 cell line, expression vector pBabeCLIH; details: HEK-293, 1 nM human OX-A; IC50 converted to Ki by Cheng-Prusoff equation
T1 sequence (O43613 1-425): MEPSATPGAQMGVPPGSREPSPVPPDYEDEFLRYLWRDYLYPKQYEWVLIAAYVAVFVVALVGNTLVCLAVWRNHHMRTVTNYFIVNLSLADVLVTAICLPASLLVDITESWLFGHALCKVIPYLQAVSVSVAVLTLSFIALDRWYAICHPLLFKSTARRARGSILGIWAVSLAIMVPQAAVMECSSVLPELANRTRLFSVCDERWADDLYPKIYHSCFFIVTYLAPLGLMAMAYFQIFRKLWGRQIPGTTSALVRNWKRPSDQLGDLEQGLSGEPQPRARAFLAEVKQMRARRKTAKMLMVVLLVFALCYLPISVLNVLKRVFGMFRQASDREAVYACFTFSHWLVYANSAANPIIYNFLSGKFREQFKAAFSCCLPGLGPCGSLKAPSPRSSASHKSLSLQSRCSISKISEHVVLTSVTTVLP
How it was run: (§1)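 HEK-293 cells expressing human OX1 or OX2 preincubated 1 h at room temperature with compound, then stimulated with 1 nM orexin-A plus 300 nM forskolin for about 18-24 h at 37 °C. Secreted PLAP read by luminescence; IC50 converted to Ki via Cheng-Prusoff using measured OX-A Kd.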

OX2 [2] = biological target: T2, OX2 (Homo sapiens, UniProt O43614); test: Antagonism PLAP reporter assay, HEK-293 cells expressing human OX2; assay type: cell-based; set-up: expressed in transfected cells; host or cells: HEK-293 cell line, expression vector pBabeCLIH; details: HEK-293, 1 nM human OX-A; IC50 converted to Ki by Cheng-Prusoff equation
T2 sequence (O43614 1-444): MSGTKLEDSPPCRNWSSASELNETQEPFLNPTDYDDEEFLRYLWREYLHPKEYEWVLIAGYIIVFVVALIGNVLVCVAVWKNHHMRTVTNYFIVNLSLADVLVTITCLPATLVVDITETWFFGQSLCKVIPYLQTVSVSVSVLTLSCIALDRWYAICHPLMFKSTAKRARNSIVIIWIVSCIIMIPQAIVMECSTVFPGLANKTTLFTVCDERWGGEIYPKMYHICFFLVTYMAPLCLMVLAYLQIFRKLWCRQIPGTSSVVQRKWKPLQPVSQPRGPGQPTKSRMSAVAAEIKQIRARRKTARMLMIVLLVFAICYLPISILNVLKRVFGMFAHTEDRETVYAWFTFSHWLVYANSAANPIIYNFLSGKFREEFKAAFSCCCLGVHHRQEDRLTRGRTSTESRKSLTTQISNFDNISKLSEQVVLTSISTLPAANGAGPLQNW
How it was run: as §1

mice (C57BL/6NCrlCrLj) = test: Sleep experiment (EEG/EMG) in mice; assay type: in vivo; details: oral administration, accumulated sleep over 3 hours, difference to vehicle-administration day
Procedure: As a method for measuring the influence of the present compound on sleep time, electroencephalogram (EEG) and electromyogram (EMG) measurements were carried out in mice (C57BL/6NCrlCrLj).
In order to measure brain waves and muscle signals, EEG and EMG electrode implantation was performed on individual mice, and the mice were then housed in a state in which they could freely move and habituate in individual recording cages for 1 week or longer. Thereafter, amplified EEG and EMG signals were digitally recorded.
Mice received either oral administration of vehicle or test compound in vehicle, after which sleep/wake behavior of mice was recorded for 3 hours.
For sleep analysis, automatic analysis software from Kissei Comtec Co., Ltd. was used to analyze EEG frequency and EMG activity signals in detail and to determine sleep and wake states. Thereafter, accumulated sleeping time over 3 hours was calculated.
The effect of the compound to increase sleep time was evaluated as the difference between sleeping time on the vehicle-administration day and the sleep time on the subsequent drug-administration day.

OX1 [3] = biological target: T1, OX1; test: Orexin-receptor binding ability, [125I]-OX-A, CHO cell membranes expressing OX1; set-up: expressed in transfected cells; host or cells: CHO cells (membrane preparation); details: membranes of recombinant CHO cells, 0.2 nM [125I]-OX-A tracer; read-out: OX1 (IC50)
How it was run: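 Buffer was 25 mM HEPES pH 7.5, 1 mM CaCl2, 4.5 mM MgCl2, 0.5% BSA, 0.1% sodium azide, 0.05% Tween-20 and 0.2% DMSO. Bound radioactivity was counted by scintillation, and IC50 values were reported.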

OX2 [4] = biological target: T2, OX2; test: Orexin-receptor binding ability, [125I]-OX-A, CHO cell membranes expressing OX2; set-up: expressed in transfected cells; host or cells: CHO cells (membrane preparation)
How it was run: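 Competition binding used membranes from recombinant CHO cells (5 μg protein/assay) with 0.2 nM [125I]-OX-A tracer and varied compound concentrations. Incubation was 30 min at room temperature in 25 mM HEPES pH 7.5 with CaCl2, MgCl2, 0.5% BSA, 0.05% Tween-20 and 0.2% DMSO. Bound radioactivity was counted by scintillation after one wash, giving IC50 (nM).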

[5] = membranes of recombinant CHO cells, 0.2 nM [125I]-OX-A tracer, read-out: OX2 (IC50)

SMILES	Ki (OX1 [1]) [nM]	Ki (OX2 [2]) [nM]	Sleep extended time (min/3 hrs) (mice (C57BL/6NCrlCrLj))	IC50 (OX1 [3]) [nM]	IC50 (OX2 [4]; [5]) [nM]	IC50 (OX2 [4]) [nM]
COc1ccc(OC[C@@]2(c3ccccc3)C[C@H]2C(=O)Nc2ccc(C#N)cn2)cc1OC [Example 4, (1R,2S)—N-(5-cyanopyridin-2-yl)-2-[(3,4-dimethoxyphenyl)oxymethyl]-2-phenylcyclopropanecarboxamide]	65.2	5.1	57	129	13	
Cc1nc(C(F)(F)F)nn1CC[C@@]1(c2ccccc2)C[C@H]1C(=O)Nc1ccc(F)cn1 [Example 121]	406	31.4	21.3	166	19	
Cc1nc(C(F)(F)F)nn1CC[C@@]1(c2ccccc2)C[C@H]1C(=O)Nc1ccc(Cl)cn1 [Example 122]	140	10	21.8	98	3	
COc1ccc(S(=O)(=O)CC2(c3ccccc3)CC2C(=O)Nc2ccc(Cl)cn2)cc1OC (stereo not shown) [Example 134, N-(5-chloropyridin-2-yl)-2-[(3,4-dimethoxyphenyl)sulfonylmethyl]-2-phenylcyclopropanecarboxamide]	> 467	268		261		79
